# Experimental data published in PMC12649549, “Sequence Permutation Generated Lysine and Tryptophan-Rich Antimicrobial Peptides with Enhanced Therapeutic Index” (Antibiotics, 2025).
# Like-named read-outs stand apart in the source and are kept apart here.
# What was measured:
# [1] = tested on: Pseudomonas aeruginosa Migula (ATCC 27853)
# Outline: (§1)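 Broth microdilution per CLSI in Müller-Hinton broth and modified LYM broth (pH 7.4; variants with 300–50 mM NaCl, 2.5–0.5 mM MgCl2, or pH 6.5–4.5). Inoculum 5 × 10^5 CFU/mL; peptides at final 50 to 0.78 µg/mL, twofold series. MIC reported; three independent repeats.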
# [2] = tested on: Escherichia coli (ATCC 25922)
# Outline: as §1
# [3] = tested on: A. baumannii 14B0091 (Acinetobacter sp., BCRC number 14B0091)
# Outline: as §1
# [4] = tested on: A. baumannii 14B0097 (Acinetobacter sp., BCRC number 14B0097)
# Outline: as §1
# [5] = tested on: S. aureus ATCC 6538
# Outline: as §1
# [6] = tested on: S. aureus ATCC 25923
# Outline: as §1
# [7] = tested on: S. aureus ATCC 33591
# Outline: as §1
# [8] = LYM broth, 0 mM NaCl, 16 h, 37 °C
# [9] = LYM broth, 50 mM NaCl, 16 h, 37 °C
# [10] = LYM broth, 100 mM NaCl, 16 h, 37 °C
# [11] = LYM broth, 200 mM (NaCl), 16 h, 37 °C
# [12] = LYM broth, 300 mM (NaCl), 16 h, 37 °C
# [13] = MH broth, 5 × 10^5 CFU/mL, 16 h, 37 °C, repeated three times
substance,measurement,setting,value
Ac-KWRKWLKWLAKKK-NH2 [Peptide W5K01],MIC,[1]; [8],3.13 µg/mL
same,MIC,"[1]; LYM broth, 0.5 mM MgCl2",3.13 µg/mL
same,MIC,"[1]; LYM broth, 1.5 mM MgCl2",6.25 µg/mL
same,MIC,"[1]; LYM broth, 2.5 mM MgCl2",12.5 µg/mL
same,MIC,[1]; [9],6.25 µg/mL
same,MIC,[1]; [10],12.5 µg/mL
same,MIC,[1]; [11],>50 µg/mL
same,MIC,[1]; [12],>50 µg/mL
same,MIC,"[1]; LYM broth, pH 4.5",3.13 µg/mL
same,MIC,"[1]; LYM broth, pH 5.5",3.13 µg/mL
same,MIC,"[1]; LYM broth, pH 6.5",1.56 µg/mL
same,MIC,[1]; [13],12.5 µg/mL
same,MIC,[2]; [8],3.13 µg/mL
same,MIC,"[2]; LYM broth, 0.5 mM MgCl2",6.25 µg/mL
same,MIC,"[2]; LYM broth, 1.5 mM MgCl2",6.25 µg/mL
same,MIC,"[2]; LYM broth, 2.5 mM MgCl2",12.5 µg/mL
same,MIC,[2]; [9],6.25 µg/mL
same,MIC,[2]; [10],25 µg/mL
same,MIC,[2]; [11],>50 µg/mL
same,MIC,[2]; [12],>50 µg/mL
same,MIC,"[2]; LYM broth, pH 4.5",3.13 µg/mL
same,MIC,"[2]; LYM broth, pH 5.5",3.13 µg/mL
same,MIC,"[2]; LYM broth, pH 6.5",3.13 µg/mL
same,MIC,[2]; [13],12.5 µg/mL
same,MIC,[3]; [8],1.56 µg/mL
same,MIC,"[3]; LYM broth, 0.5 mM MgCl2",1.56 µg/mL
same,MIC,"[3]; LYM broth, 1.5 mM MgCl2",1.56 µg/mL
same,MIC,"[3]; LYM broth, 2.5 mM MgCl2",3.13 µg/mL
same,MIC,[3]; [9],3.13 µg/mL
same,MIC,[3]; [10],3.13 µg/mL
same,MIC,[3]; [11],3.13 µg/mL
same,MIC,[3]; [12],12.5 µg/mL
same,MIC,"[3]; LYM broth, pH 4.5",1.56 µg/mL
same,MIC,"[3]; LYM broth, pH 5.5",1.56 µg/mL
same,MIC,"[3]; LYM broth, pH 6.5",1.56 µg/mL
same,MIC,[3]; [13],6.25 µg/mL
same,MIC,[4]; [8],1.56 µg/mL
same,MIC,"[4]; LYM broth, 0.5 mM MgCl2",1.56 µg/mL
same,MIC,"[4]; LYM broth, 1.5 mM MgCl2",3.13 µg/mL
same,MIC,"[4]; LYM broth, 2.5 mM MgCl2",3.13 µg/mL
same,MIC,[4]; [9],1.56 µg/mL
same,MIC,[4]; [10],3.13 µg/mL
same,MIC,[4]; [11],3.13 µg/mL
same,MIC,[4]; [12],12.5 µg/mL
same,MIC,"[4]; LYM broth, pH 4.5",3.13 µg/mL
same,MIC,"[4]; LYM broth, pH 5.5",3.13 µg/mL
same,MIC,"[4]; LYM broth, pH 6.5",1.56 µg/mL
same,MIC,[4]; [13],6.25 µg/mL
same,MIC,[5]; [8],3.13 µg/mL
same,MIC,"[5]; LYM broth, 0.5 mM MgCl2",1.56 µg/mL
same,MIC,"[5]; LYM broth, 1.5 mM MgCl2",1.56 µg/mL
same,MIC,"[5]; LYM broth, 2.5 mM MgCl2",3.13 µg/mL
same,MIC,[5]; [9],6.25 µg/mL
same,MIC,[5]; [10],12.5 µg/mL
same,MIC,[5]; [11],12.5 µg/mL
same,MIC,[5]; [12],25 µg/mL
same,MIC,"[5]; LYM broth, pH 4.5",3.13 µg/mL
same,MIC,"[5]; LYM broth, pH 5.5",1.56 µg/mL
same,MIC,"[5]; LYM broth, pH 6.5",1.56 µg/mL
same,MIC,[5]; [13],12.5 µg/mL
same,MIC,[6]; [8],3.13 µg/mL
same,MIC,"[6]; LYM broth, 0.5 mM MgCl2",3.13 µg/mL
same,MIC,"[6]; LYM broth, 1.5 mM MgCl2",6.25 µg/mL
same,MIC,"[6]; LYM broth, 2.5 mM MgCl2",6.25 µg/mL
same,MIC,[6]; [9],6.25 µg/mL
same,MIC,[6]; [10],12.5 µg/mL
same,MIC,[6]; [11],50 µg/mL
same,MIC,[6]; [12],>50 µg/mL
same,MIC,"[6]; LYM broth, pH 4.5",3.13 µg/mL
same,MIC,"[6]; LYM broth, pH 5.5",3.13 µg/mL
same,MIC,"[6]; LYM broth, pH 6.5",1.56 µg/mL
same,MIC,[6]; [13],12.5 µg/mL
same,MIC,[7]; [8],6.25 µg/mL
same,MIC,"[7]; LYM broth, 0.5 mM MgCl2",6.25 µg/mL
same,MIC,"[7]; LYM broth, 1.5 mM MgCl2",6.25 µg/mL
same,MIC,"[7]; LYM broth, 2.5 mM MgCl2",6.25 µg/mL
same,MIC,[7]; [9],12.5 µg/mL
same,MIC,[7]; [10],12.5 µg/mL
same,MIC,[7]; [11],25 µg/mL
same,MIC,[7]; [12],50 µg/mL
same,MIC,"[7]; LYM broth, pH 4.5",6.25 µg/mL
same,MIC,"[7]; LYM broth, pH 5.5",6.25 µg/mL
same,MIC,"[7]; LYM broth, pH 6.5",3.13 µg/mL
same,MIC,[7]; [13],50 µg/mL
Ac-LAKKKKWRKWLKW-NH2 [Peptide W5K09],MIC,[1]; [8],3.13 µg/mL
same,MIC,"[1]; LYM broth, 0.5 mM MgCl2",6.25 µg/mL
same,MIC,"[1]; LYM broth, 1.5 mM MgCl2",6.25 µg/mL
same,MIC,"[1]; LYM broth, 2.5 mM MgCl2",12.5 µg/mL
same,MIC,[1]; [9],6.25 µg/mL
same,MIC,[1]; [10],12.5 µg/mL
same,MIC,[1]; [11],50 µg/mL
same,MIC,[1]; [12],>50 µg/mL
same,MIC,"[1]; LYM broth, pH 4.5",6.25 µg/mL
same,MIC,"[1]; LYM broth, pH 5.5",3.13 µg/mL
same,MIC,"[1]; LYM broth, pH 6.5",3.13 µg/mL
same,MIC,[1]; [13],25 µg/mL
same,MIC,[2]; [8],6.25 µg/mL
same,MIC,"[2]; LYM broth, 0.5 mM MgCl2",6.25 µg/mL
same,MIC,"[2]; LYM broth, 1.5 mM MgCl2",12.5 µg/mL
same,MIC,"[2]; LYM broth, 2.5 mM MgCl2",12.5 µg/mL
same,MIC,[2]; [9],12.5 µg/mL
same,MIC,[2]; [10],25 µg/mL
same,MIC,[2]; [11],50 µg/mL
same,MIC,[2]; [12],>50 µg/mL
same,MIC,"[2]; LYM broth, pH 4.5",6.25 µg/mL
same,MIC,"[2]; LYM broth, pH 5.5",3.13 µg/mL
same,MIC,"[2]; LYM broth, pH 6.5",3.13 µg/mL
same,MIC,[2]; [13],25 µg/mL
same,MIC,[3]; [8],1.56 µg/mL
same,MIC,"[3]; LYM broth, 0.5 mM MgCl2",3.13 µg/mL
same,MIC,"[3]; LYM broth, 1.5 mM MgCl2",3.13 µg/mL
same,MIC,"[3]; LYM broth, 2.5 mM MgCl2",3.13 µg/mL
same,MIC,[3]; [9],6.25 µg/mL
same,MIC,[3]; [10],12.5 µg/mL
same,MIC,[3]; [11],50 µg/mL
same,MIC,[3]; [12],>50 µg/mL
same,MIC,"[3]; LYM broth, pH 4.5",6.25 µg/mL
same,MIC,"[3]; LYM broth, pH 5.5",3.13 µg/mL
same,MIC,"[3]; LYM broth, pH 6.5",1.56 µg/mL
same,MIC,[3]; [13],50 µg/mL
same,MIC,[4]; [8],3.13 µg/mL
same,MIC,"[4]; LYM broth, 0.5 mM MgCl2",3.13 µg/mL
same,MIC,"[4]; LYM broth, 1.5 mM MgCl2",3.13 µg/mL
same,MIC,"[4]; LYM broth, 2.5 mM MgCl2",3.13 µg/mL
same,MIC,[4]; [9],3.13 µg/mL
same,MIC,[4]; [10],12.5 µg/mL
same,MIC,[4]; [11],50 µg/mL
same,MIC,[4]; [12],>50 µg/mL
same,MIC,"[4]; LYM broth, pH 4.5",6.25 µg/mL
same,MIC,"[4]; LYM broth, pH 5.5",3.13 µg/mL
same,MIC,"[4]; LYM broth, pH 6.5",1.56 µg/mL
same,MIC,[4]; [13],25 µg/mL
same,MIC,[5]; [8],6.25 µg/mL
same,MIC,"[5]; LYM broth, 0.5 mM MgCl2",3.13 µg/mL
same,MIC,"[5]; LYM broth, 1.5 mM MgCl2",3.13 µg/mL
same,MIC,"[5]; LYM broth, 2.5 mM MgCl2",3.13 µg/mL
same,MIC,[5]; [9],6.25 µg/mL
same,MIC,[5]; [10],12.5 µg/mL
same,MIC,[5]; [11],12.5 µg/mL
same,MIC,[5]; [12],50 µg/mL
same,MIC,"[5]; LYM broth, pH 4.5",6.25 µg/mL
same,MIC,"[5]; LYM broth, pH 5.5",3.13 µg/mL
same,MIC,"[5]; LYM broth, pH 6.5",3.13 µg/mL
same,MIC,[5]; [13],>50 µg/mL
same,MIC,[6]; [8],3.13 µg/mL
same,MIC,"[6]; LYM broth, 0.5 mM MgCl2",3.13 µg/mL
same,MIC,"[6]; LYM broth, 1.5 mM MgCl2",6.25 µg/mL
same,MIC,"[6]; LYM broth, 2.5 mM MgCl2",6.25 µg/mL
same,MIC,[6]; [9],6.25 µg/mL
same,MIC,[6]; [10],12.5 µg/mL
same,MIC,[6]; [11],50 µg/mL
same,MIC,[6]; [12],>50 µg/mL
same,MIC,"[6]; LYM broth, pH 4.5",6.25 µg/mL
same,MIC,"[6]; LYM broth, pH 5.5",3.13 µg/mL
same,MIC,"[6]; LYM broth, pH 6.5",1.56 µg/mL
same,MIC,[6]; [13],25 µg/mL
same,MIC,[7]; [8],25 µg/mL
same,MIC,"[7]; LYM broth, 0.5 mM MgCl2",25 µg/mL
same,MIC,"[7]; LYM broth, 1.5 mM MgCl2",50 µg/mL
same,MIC,"[7]; LYM broth, 2.5 mM MgCl2",50 µg/mL
same,MIC,[7]; [9],25 µg/mL
same,MIC,[7]; [10],50 µg/mL
same,MIC,[7]; [11],>50 µg/mL
same,MIC,[7]; [12],>50 µg/mL
same,MIC,"[7]; LYM broth, pH 4.5",25 µg/mL
same,MIC,"[7]; LYM broth, pH 5.5",12.5 µg/mL
same,MIC,"[7]; LYM broth, pH 6.5",12.5 µg/mL
same,MIC,[7]; [13],>50 µg/mL
